“Also recorded” adds a separate entry of the source.
Key:
TG-2 [1] = test: Western blot of TG proteins in mouse scleral fibroblasts after muscarinic agents; type: cell-based
Experimental: (§1) All cells used in examples described herein were between passages 2-4. Passaged cells were plated at a concentration of 2×10^5/mL into 6 well plates containing DMEM with 10% FBS. The cells were seen to attach to the bottom of the culture wells after 4 hours. Old media was removed from wells and 1 mL of drug was added with fresh full medium and incubated at 37° C. Fresh drugs were replaced daily consecutively for the next 5 days to avoid oxidation. The drugs/media was removed and wells were washed twice with 1×PBS. 200 μl of RIPA lysis buffer was added per well and incubated for 5 minutes and cells were scrapped into an eppendorf tube. The cells were stored at −20° C. until sonication. The cells were sonicated on ice thrice at 20% output power for 5 seconds each time and rested 1 minute in between each turn. Cell debris was spun down at 12000 rpm for 20 minutes. The supernatant was poured into a new eppendorf tube and cell concentrations were determined using the Dc Protein assay Kit (Bio-Rad, MA). Passaged cells were plated at a concentration of 1×10^5 into 6 well plates containing DMEM with 10% FBS. The cells were seen to attach to the bottom of the culture wells after 4 hours. Freshly prepared muscarinic agents' at base line, 0.1, 1, 10 and 100 μM concentrations were added for 5 days (Table 2). The culture medium was removed and fresh medium containing the same muscarinic drug added every day to avoid drug changes such as atropine oxidation. Cell lysate was collected for relative quantitative (q) PCR and protein analysis at day 5.
The cells were lysed by sonification in 1×RIPA lysis buffer (santa cruz biotechnology, Sc-24948) with 10 μl PMSF solution, 10 μl sodium orthovanadate solution and 20 μl protease inhibitor cocktail solution. After centrifugation at 20,000×g at 4° C. for 20 minutes, and the supernatant collected. The protein content in the supernatants was measured using the DC Protein Assay kit (Bio-Rad, MA) following the manufacturer's instructions. Samples were stored at −80° C. until assayed.
The mouse and human scleral fibroblasts were treated with atropine or carbachol at 0.01, 0.1, 1, 5 and 10 μM concentrations for 5 days. Following 5 days of treatment, the total cellular protein was extracted from these cells and TG proteins detected via Western blot analysis.
Human and, mouse scleral fibroblast proteins in the supernatant were separated by SDS-PAGE, transferred to nitrocellulose membranes, blocked in 5% BSA in TBST (10 mM Tris-HCl [pH 8.0], 150 mM NaCl, and […] Tween-20) for 2 hours at room temperature, and incubated with the same anti-TG-2 antibody described herein at a dilution of 1:1000 and anti β-tubulin antibodies used as a positive control, for 1 hour at room temperature. The membranes were washed 3 times in TBST and incubated with HRP-conjugated secondary antibody (Chemicon International) at a dilution of 1:2500 for 1 hour at room temperature. Immunoreactive bands were visualized using the enhanced chemiluminescence method (GE Healthcare, Buckinghamshire, UK). The membrane was wrapped in plastic and placed against an X-ray film to expose for an appropriate length of time (30 seconds-5 minutes).

TG-2 [2] = test: TG-2 colorimetric microassay (transamidase activity) in lysate of treated human scleral fibroblasts; type: cell-based; conditions: for transamidase activity of endogenous cellular TG-2: human scleral fibroblasts, 0.1, 1, 10 and 100 μM for 5 days, concentration-dependent
Experimental: as §1, with “The cells were seen to attach to the bottom of the culture wells after 4 hours.” left out
This assay was designed to assess the cross-linking activity of TG-2 between two proteins. TG activity was measured with TG-2 colorimetric Microassay kit (TG-Covtest, Covalab, Cambridge, UK). 150-200 μg of total protein was used per well for the TG-2 assay. Transglutaminase standards (Sigma) were used as a positive control. EDTA was used to inhibit the enzyme activity as a negative control.
The approximate volume of reagents to use, the wavelengths to use to read absorbance, the incubation times were determined from a previous study that have carried out experiments with similar principles as described in Perez Alea M, Kitamura M, Martin G, Thomas V, Hitomi K, El Alaoui S., “Development of an isoenzyme-specific colorimetric assay for tissue transglutaminase 2 cross-linking activity”, Anal Biochem. 2009 Jun. 15; 389(2):150-6, Epub 2009 March 24. All reagents used and protein coated plates were part of the kit. Biotin cadaverine was reconstituted with 6 ml of deionized water and 90 μl was added into each well of the 96 well plate that comes coated with CBZ-GLN-GLY. The rest of the steps were followed as in the manufacturer's instructions and finally absorbance was read at 450 nm using a microplate reader (TECAN, Austria). All incubations were performed with gentle shaking on a laboratory orbital shaker.
The TG-2 colorimetric assay serves as a high throughput and quantitative assay to assess transamidase activity. […] In vivo studies with these drugs were also conducted to determine the effect on myopia development (see FIGS. 14 and 15).

Row | SMILES | TG-2 protein level (TG-2 [1]; 0.01-10 μM for 5 days, Western blot) | transamidase activity of endogenous cellular TG-2 (TG-2 [2]) | TG-2 protein level (TG-2 [1]; specific muscarinic antagonists) | TG-2 activity, strongest reduction among the antagonists (TG-2 [2]; human scleral fibroblasts, all concentrations) | TG-2 activity as compared to atropine (TG-2 [2]; human scleral fibroblasts, himbacine 0.1, 1, 10 & 100 μM, darifenacin 0.1, 1 & 10 μM)
1 | CN1[C@@H]2CC[C@H]1C[C@@H](OC(=O)C(CO)c1ccccc1)C2 (stereo partly drawn) [atropine] | reduced; also recorded: reduction | reduced | – | – | –
2 | C[C@@H]1OC(=O)[C@H]2C[C@H]3CCCC[C@@H]3[C@@H](/C=C/[C@H]3CCC[C@H](C)N3C)[C@@H]12 [himbacine] | – | reduced | significantly reduced | most significantly reduced | more significantly reduced

From patent publication US20140050779A1, “[…]-2 INHIBITORS AND USES THEREOF” (SINGAPORE HEALTH SERVICES PTE. LTD., priority 2011, published 2014)
